# Test results: publication PMC10794144, “A novel antibiotic class targeting the lipopolysaccharide transporter” (Nature, 2024)
# Read-outs that look alike come from different tables or passages of the source.
# System: A. baumannii
# Test: MIC, broth microdilution in CAMHB supplemented with human serum, read at 100% growth inhibition
# Assay type: cell-based, Acinetobacter baumannii
# Procedure: MIC determinations were performed using the broth microdilution method and in line with CLSI guidelines M07 and M100 (refs. [37],[38]). Bacterial inocula were prepared by diluting a 0.5 McFarland suspension in CAMHB or lysogeny broth (LB) specifically for A. baylyi isolates. […] MIC values of all of the tested antibiotics were read as the lowest compound concentration inhibiting bacterial growth by naked eye or beyond which the OD600 ceased to decrease.
smiles,measurement,setting,value
CN1C(=O)[C@H](CCCCN)NC(=O)[C@H](CCCN)NCc2cccnc2Sc2cccc(-c3ccc(C(=O)O)cc3)c2CNC(=O)[C@@H]1Cc1c[nH]c2ccccc12 [zosurabalpin],MIC range,129 clinical isolates,≤0.016 to 4 µg/mL
same,MIC,"ACC01073, CAMHB + 20% HS",2 µg/mL
same,MIC,"Acinetobacter baumannii, ACC00445, CAMHB + 20% HS, read-out: MIC",0.25 µg/mL
same,MIC,"Acinetobacter baumannii, ACC00535, CAMHB + 20% HS, read-out: MIC",0.12 µg/mL
same,MIC,"Acinetobacter baumannii, ACC01073, CAMHB + 20% HS, read-out: MIC",2 µg/mL
same,MIC,"Acinetobacter baumannii, ACC01077, CAMHB + 20% HS, read-out: MIC",0.25 µg/mL
same,MIC,"Acinetobacter baumannii, ACC01085 / AR0307, CAMHB + 20% HS, read-out: MIC",0.5 µg/mL
same,MIC,"Acinetobacter baumannii, ATCC17978, ATCC 17978, CAMHB + 20% HS, read-out: MIC",0.12 µg/mL
same,MIC,"Acinetobacter baumannii, ATCC19606, ATCC 19606, CAMHB + 20% HS, read-out: MIC",0.5 µg/mL
same,MIC,"Acinetobacter baumannii, ATCCBAA747, ATCC BAA-747, CAMHB + 20% HS, read-out: MIC",≤ 0.06 µg/mL
same,MIC,"Acinetobacter baumannii, ROB08701, 129-isolate panel, 20% HS, read-out: MIC",0.06 µg/mL
same,MIC,"Acinetobacter baumannii, ROB08701, CAMHB + 20% HS, read-out: MIC",≤ 0.06 µg/mL
same,MIC,"Acinetobacter baumannii, ROB08702, 129-isolate panel, 20% HS, read-out: MIC",0.125 µg/mL
same,MIC,"Acinetobacter baumannii, ROB08702, CAMHB + 20% HS, read-out: MIC",0.12 µg/mL
same,MIC,"Acinetobacter baumannii, ROB08703, 129-isolate panel, 20% HS, read-out: MIC",0.5 µg/mL
same,MIC,"Acinetobacter baumannii, ROB08703, CAMHB + 20% HS, read-out: MIC",2 µg/mL
same,MIC,"Acinetobacter baumannii, ROB08704, 129-isolate panel, 20% HS, read-out: MIC",0.25 µg/mL
same,MIC,"Acinetobacter baumannii, ROB08704, CAMHB + 20% HS, read-out: MIC",0.25 µg/mL
same,MIC,"Acinetobacter baumannii, ROB08705, 129-isolate panel, 20% HS, read-out: MIC",0.06 µg/mL
same,MIC,"Acinetobacter baumannii, ROB08705, CAMHB + 20% HS, read-out: MIC",0.25 µg/mL
same,MIC,"Acinetobacter baumannii, ROB08706, 129-isolate panel, 20% HS, read-out: MIC",0.125 µg/mL
same,MIC,"Acinetobacter baumannii, ROB08706, CAMHB + 20% HS, read-out: MIC",1 µg/mL
same,MIC,"Acinetobacter baumannii, ROB08707, 129-isolate panel, 20% HS, read-out: MIC",0.03 µg/mL
same,MIC,"Acinetobacter baumannii, ROB08707, CAMHB + 20% HS, read-out: MIC",≤ 0.06 µg/mL
same,MIC,"Acinetobacter baumannii, ROB08708, 129-isolate panel, 20% HS, read-out: MIC",0.125 µg/mL
same,MIC,"Acinetobacter baumannii, ROB08708, CAMHB + 20% HS, read-out: MIC",0.25 µg/mL
same,MIC,"Acinetobacter baumannii, ROB08709, 129-isolate panel, 20% HS, read-out: MIC",0.03 µg/mL
same,MIC,"Acinetobacter baumannii, ROB08709, CAMHB + 20% HS, read-out: MIC",≤ 0.06 µg/mL
same,MIC,"Acinetobacter baumannii, ROB08710, 129-isolate panel, 20% HS, read-out: MIC",0.125 µg/mL
same,MIC,"Acinetobacter baumannii, ROB08710, CAMHB + 20% HS, read-out: MIC",0.12 µg/mL
same,MIC,"Acinetobacter baumannii, ROB08961 (LpxM NS), 20% HS, read-out: MIC",4 µg/mL
same,MIC,"Acinetobacter baumannii, ROB08979 (LptF R322L), 20% HS, read-out: MIC",8 µg/mL
same,MIC,"Acinetobacter baumannii, ROB08982 (lpxM ISAba1), 20% HS, read-out: MIC",4 µg/mL
same,MIC,"Acinetobacter baumannii, ROB08985 (LpxM NS), 20% HS, read-out: MIC",4 µg/mL
same,MIC,"Acinetobacter baumannii, ROB08997 (LptF I323K), 20% HS, read-out: MIC",16 µg/mL
same,MIC,"Acinetobacter baumannii, ROB08998 (AdeR A91V), 20% HS, read-out: MIC",8 µg/mL
same,MIC,"Acinetobacter baumannii, ROB09000 (lpxM ISAba1), 20% HS, read-out: MIC",8 µg/mL
same,MIC,"Acinetobacter baumannii, ROB21530 (LptF W271S), 20% HS, read-out: MIC",16 µg/mL
same,MIC,"Acinetobacter baumannii, ROB21531 (LptG G40D), 20% HS, read-out: MIC",8 µg/mL
same,MIC,"Acinetobacter baumannii, ROB21532 (LptF R322C), 20% HS, read-out: MIC",64 µg/mL
same,MIC,"Acinetobacter baumannii, ROB21533 (LptF I317L), 20% HS, read-out: MIC",64 µg/mL
same,MIC,"Acinetobacter baumannii, ROB23370 (adeS ISAba1), 20% HS, read-out: MIC",4 µg/mL
same,MIC,"Acinetobacter baumannii, ROB23371 (AdeS R152K), 20% HS, read-out: MIC",4 µg/mL
same,MIC,"Acinetobacter baumannii, ROB23373 (AdeS G318S), 20% HS, read-out: MIC",2 µg/mL
same,MIC,"Acinetobacter baumannii, ROB23377 (AdeS R108S), 20% HS, read-out: MIC",1 µg/mL
same,MIC,"Acinetobacter baumannii, ROB23380 (adeS ISAba1), 20% HS, read-out: MIC",8 µg/mL
same,MIC,"Acinetobacter baumannii, isolate 1061067, 20% HS, read-out: MIC",0.25 µg/mL
same,MIC,"Acinetobacter baumannii, isolate 1061145, 20% HS, read-out: MIC",0.125 µg/mL
same,MIC,"Acinetobacter baumannii, isolate 1065279, 20% HS, read-out: MIC",0.25 µg/mL
same,MIC,"Acinetobacter baumannii, isolate 1065391, 20% HS, read-out: MIC",0.25 µg/mL
same,MIC,"Acinetobacter baumannii, isolate 1065549, 20% HS, read-out: MIC",0.06 µg/mL
same,MIC,"Acinetobacter baumannii, isolate 1069554, 20% HS, read-out: MIC",0.06 µg/mL
same,MIC,"Acinetobacter baumannii, isolate 1072184, 20% HS, read-out: MIC",0.25 µg/mL
same,MIC,"Acinetobacter baumannii, isolate 1089062, 20% HS, read-out: MIC",0.125 µg/mL
same,MIC,"Acinetobacter baumannii, isolate 1089975, 20% HS, read-out: MIC",0.125 µg/mL
